Bridge positions count the residues as written; N and C are the ends. Square brackets hold non-standard residues; d marks the D form. Peptide text beside a SMILES is read from it. * marks the point of attachment. Ileψ(thiazoline)Cys = CC[C@H](C)[C@H](N)C1=N[C@H](C(=O)*)CS1; dOrn = NCCC[C@@H](N)C(=O)O
Experiments:
resident flora = conditions: infants, after treatment with the antibiotic; cited from earlier work
Candida albicans = conditions: in vivo; cited from earlier work
[1] = test system: Staphylococcus aureus (DSM346); assay: in-vitro-hole plate assay, growth inhibition of S. aureus in comparison to bacitracin and erythromycin (Example 12); assay type: cell-based; conditions: BHI agar, pre-cut holes; antibiotics at different concentrations, defined numbers of Lactobacillus cells; FIG. 10A/10B
Text: The degree of growth inhibition of the microorganism(s) of the transient pathogenic skin micro flora in comparison to the inhibition of growth of at least one such microorganism after the use of an antibiotic can preferably be observed in vitro, more preferably in an assay in which a microorganism according to aspect (ii) of the invention, as described herein above, is contacted with one or more microorganisms of the transient pathogenic skin micro flora and the growth of the(se) microorganism(s) of the transient pathogenic skin micro flora is determined. Most preferably, the comparison of growth inhibition can be determined in an “in vitro hole plate assay” as described in the Examples and mentioned herein above. […]
This effect has been compared to commercial antibiotic cream preparations of bacitracin and erythromycin. […] The diameter of the inhibition zones has been measured and the area of inhibition has been calculated thereof. […]

| Compound | repression of the resident flora (resident flora) | increase of the pathogenic yeast Candida albicans (Candida albicans) | growth inhibition of the indicator strain S. aureus (inhibition zone, area of inhibition) [1] |
| --- | --- | --- | --- |
| CC1(C)S[C@@H]2[C@H](NC(=O)[C@H](N)c3ccc(O)cc3)C(=O)N2[C@H]1C(=O)O [amoxicillin] | about 50% | more than a fourteen-fold increase |  |
| CC[C@H](C)[C@H](N)C1=N[C@H](C(=O)N[C@@H](CC(C)C)C(=O)N[C@H](CCC(=O)O)C(=O)N[C@H](C(=O)N[C@H]2CCCCNC(=O)[C@H](CC(N)=O)NC(=O)[C@@H](CC(=O)O)NC(=O)[C@H](Cc3cnc[nH]3)NC(=O)[C@@H](Cc3ccccc3)NC(=O)[C@H]([C@@H](C)CC)NC(=O)[C@@H](CCCN)NC2=O)[C@@H](C)CC)CS1 [bacitracin] ({Ileψ(thiazoline)Cys}-L[dE]IK[dOrn]I[dF]H[dD]N; lactam 4-C) |  |  | growth inhibition of the indictator strain S. aureus has been observed |
| CC[C@H]1OC(=O)[C@H](C)[C@@H](O[C@H]2C[C@@](C)(OC)[C@@H](O)[C@H](C)O2)[C@H](C)[C@@H](O[C@@H]2O[C@H](C)C[C@H](N(C)C)[C@H]2O)[C@](C)(O)C[C@@H](C)C(=O)[C@H](C)[C@@H](O)[C@]1(C)O [erythromycin] |  |  | growth inhibition of the indictator strain S. aureus has been observed |
| Lactobacillus delbrückii ssp. delbrückii OB-LB-Sa3 |  |  | growth inhibition of S. aureus |
